Test results taken from patent US20250221965A1, “THERAPEUTIC AGENT FOR RESPIRATORY DISEASE” (THE JIKEI UNIVERSITY, priority 2022, published 2025).

Legend:
[1] = system: cigarette smoke-exposed COPD model; test: Cigarette smoke-exposed COPD model; assay type: in vivo, C57BL/6J mice
Source text: The effect of pemafibrate was examined with reference to a procedure described in a literature ([…], et al.: Autophagy (2019), 15(3): 510)). That is, C57BL/6J mice were exposed to cigarette smoke with an exposure and inhalation system for small animals five times a week for 6 months. The mice were classified into a total of 4 groups as follows: the mice were classified into a normal diet group (Ctrl) and a 0.0003 w/w % pemafibrate mixed feed group (Pema), and the groups were each further classified into a room air group (RA) and a cigarette smoke exposure group (CS). First, a lung after the completion of the administration of pemafibrate was removed from the room air group (RA), and was evaluated for the expression of TFEB by being homogenized. […] Next, a bronchoalveolar lavage fluid was collected and evaluated for its cells. […] In addition, an alveolar diameter was measured and the degree of emphysema was evaluated.

[2] = system: p21 expression in human-derived cultured airway epithelial cells (HBEC) with cigarette smoke extract; test: Action on smoking stimulation-induced cell senescence (p21 expression); assay type: cell-based; conditions: 24 hours
Experimental: The effect of pemafibrate was examined with reference to a procedure described in a literature (Saito N, et al.: J Immunol (2019), 202: 1428). That is, human-derived cultured airway epithelial cells (HBEC) were cultured in a culture medium supplemented with 10 nM to 100 nM of pemafibrate together with 1% cigarette smoke extract (CSE) for 24 hours, and were compared to a control (0 nM).

[3] = system: TFEB expression in cultured human airway epithelial cells (BEAS2B); test: Induction of TFEB expression in human airway epithelial cell; assay type: cell-based; conditions: 24 hours
Experimental: The effect of pemafibrate was examined with reference to a procedure described in a literature ([…], et al.: Autophagy (2019), 15(3): 510). That is, cultured human airway epithelial cells (BEAS2B) were cultured in a culture medium supplemented with 10 nM or 100 nM of pemafibrate for 24 hours, and were compared to a control (0 nM).

For `CC[C@@H](Oc1cccc(CN(CCCOc2ccc(OC)cc2)c2nc3ccccc3o2)c1)C(=O)O` [pemafibrate, (R)-2-[3-[[N-(benzoxazol-2-yl)-N-3-(4-methoxyphenoxy)propyl]aminomethyl]phenoxy]butyric acid], the “destruction of lung structure (alveolar diameter, degree of emphysema)” value ([1]; cigarette smoke exposure (CS) 6 months, 0.0003 w/w % mixed feed, FIG. 5 and 6) was “the destruction of a lung structure due to the cigarette smoke exposure (CS) was suppressed”, the “cell senescence due to cigarette smoke exposure” value ([1]; cigarette smoke exposure (CS) 6 months, 0.0003 w/w % mixed feed, FIG. 7) was “the cell senescence due to the cigarette smoke exposure (CS) was suppressed” and the “expression of TFEB in lung homogenate” value ([1]; room air group (RA), 0.0003 w/w % pemafibrate mixed feed, 6 months, FIG. 3) was “an increase in expression of TFEB was observed”. The “expression of p21 increased by CSE stimulation” value ([2]; 10 nM to 100 nM pemafibrate with 1% CSE, FIG. 2) was “suppressed by pemafibrate in a dose-dependent manner”, the “suppressing action on cell senescence” value ([2]; 1% CSE) was “had a suppressing action on cell senescence” and the “pemafibrate concentration giving significant difference in ratio of p21 to ACTB expression vs control” value ([2]; 1% CSE, p<0.05) was ≥ 20 nM. The “expression of TFEB” value ([3]; 10 nM or 100 nM pemafibrate, vs control (0 nM), FIG. 1) was “increased in a manner dependent on the dose” and the “ratio of the expression amount of TFEB to the expression amount of ACTB” value ([3]; 10 nM or 100 nM, vs control, p<0.05) was “a significant difference was observed as compared to the control”.
